Where two headings read alike, the source gives them in different places.
Assays:
[1] = biological target: T1, menin (Homo sapiens, UniProt O00255, T541A); assay: Menin/MLL homogenous time-resolved fluorescence (HTRF) assay; assay type: binding
T1 construct: Menin (a.a. 1-610-6×his tag)
T1 sequence (O00255 with tags, fused parts or gaps T541A): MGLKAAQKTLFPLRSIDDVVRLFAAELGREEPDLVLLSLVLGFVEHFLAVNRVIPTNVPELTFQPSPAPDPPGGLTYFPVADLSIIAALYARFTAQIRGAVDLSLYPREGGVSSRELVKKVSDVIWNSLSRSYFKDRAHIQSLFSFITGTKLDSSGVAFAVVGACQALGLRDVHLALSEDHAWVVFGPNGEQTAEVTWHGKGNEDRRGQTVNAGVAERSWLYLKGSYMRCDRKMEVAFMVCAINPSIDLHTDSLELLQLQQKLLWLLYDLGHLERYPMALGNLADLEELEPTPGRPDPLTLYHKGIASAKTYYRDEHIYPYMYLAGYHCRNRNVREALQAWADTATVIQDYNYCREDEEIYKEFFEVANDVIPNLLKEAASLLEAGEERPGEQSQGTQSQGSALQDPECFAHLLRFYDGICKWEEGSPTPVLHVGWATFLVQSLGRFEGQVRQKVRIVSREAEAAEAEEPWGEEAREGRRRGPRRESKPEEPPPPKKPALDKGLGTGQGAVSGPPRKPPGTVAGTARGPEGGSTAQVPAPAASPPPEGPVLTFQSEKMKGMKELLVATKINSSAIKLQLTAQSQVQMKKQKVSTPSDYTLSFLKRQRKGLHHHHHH
Outline: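 Displacement of 75 nM FITC-MBM1 from terbium-cryptate-labeled His-tagged menin 1-610 ([…]) was read as the 520/490 nm HTRF ratio. Compound (11-point, 3-fold series) got 5 min with menin before peptide, then 15 min at ambient; 0.5% DMSO, Tris pH 7.5.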

[2] = test system: MOLM14; assay: Proliferation assay B (spheroid assay) MOLM14; assay type: cell-based, human; details: MOLM14 cells, confluence at day 8, absolute IC50, read-out: (3b) Spheroid assay MOLM14 (IC50(μM)) Assay B
Description: 3b) Proliferation Assay B
The anti-proliferative effect of menin/MLL protein/protein interaction inhibitor test compounds was assessed in human leukemia cell lines. The cell lines MV-4-11 and MOLM14 harbor MILL translocations and express the MILL fusion proteins MLL-AF4 and MLL-AF9, respectively, as well as the wildtype protein from the second allele. […] K562 was used as a control cell line containing two MLL wildtype alleles in order to exclude compounds that display general cytotoxic effects.
MV-4-11 and MOLM14 were cultured in RPMI-1640 (Sigma Aldrich) supplemented with 10% fetal bovine serum (HyClone), 2 mM L-glutamine (Sigma Aldrich) and 50 μg/ml gentamycin (Gibco). K562 were propagated in RPMI-1640 (Sigma Aldrich) supplemented with 20% fetal bovine serum (HyClone), 2 mM L-glutamine (Sigma Aldrich) and 50 μg/ml gentamycin (Gibco).
In order to assess the anti-proliferative effects, 1,500 MV-4-11, 300 MOLM14 cells or 750 K562 cells were seeded in 200 μl media per well in 96-well round bottom, ultra-low attachment plates (Costar, catalogue number 7007). Cell seeding numbers were chosen based on growth curves to ensure linear growth throughout the experiment. Test compounds were added at different concentrations and the DMSO content was normalized to 0.3%. Cells were incubated for 8 d at 37° C. and 5% CO2. Spheroid like growth was measured in real-time by live-cell imaging (IncuCyteZOOM, Essenbio, 4× objective) acquiring images at day 8. Confluence (%) as a measure of spheroid size was determined using an integrated analysis tool.
In order to determine the effect of the test compounds over time, the confluence in each well as a measure of spheroid size, was calculated. Confluence […] at the beginning of the experiment (t=0) was used as baseline for the calculation.
Absolute IC50 values were calculated as percent change in confluence as follows:
LC=Low Control: cells treated with 1 μM of the cytotoxic agent staurosporin
HC=High Control: Mean confluence (%) (DMSO treated cells) % Effect=100−(100*(Sample−LC)/(HC−LC))
To determine the IC50 a curve is fitted to the plot of % Effect vs Log 10 compound concentration using a sigmoidal fit with a variable slope and fixing the maximum to 100% and the minimum to 0%.

[3] = location 2, read-out: (2) location 2 Menin HTRF assay (IC50 (nM))
[4] = location 1, read-out: (2) location 1 Menin HTRF assay (IC50 (nM))

IC50 [1, 3] | IC50 ([2]; Homo sapiens, MOLM-14, 192 h) | IC50 [2] | IC50 [1, 4] | Compound
127 nM | > 3.75 µM | – | – | CS(=O)(=O)N1CCN(C(=O)c2ccc(NC3CC4(CCN(c5ncnc6sc(CC(F)(F)F)cc56)C4)C3)cc2)CC1 (single isomer, unassigned) [Compound 178]
82 nM | > 3.75 µM | – | – | COC1CCN(C(=O)c2ccc(NC3CC4(CCN(c5ncnc6sc(CC(F)(F)F)cc56)C4)C3)cc2)CC1 (single isomer, unassigned) [Compound 183]
1580 nM | > 3.75 µM | – | – | O=C(c1ccc(NC2CC3(CCN(c4ncnc5sc(CC(F)(F)F)cc45)C3)C2)cc1)N1CCNCC1 (single isomer, unassigned) [Compound 187]
143 nM | > 3.75 µM | – | – | CS(=O)(=O)N1CCN(CCNC(=O)c2ccc(NC3CC4(CCN(c5ncnc6sc(CC(F)(F)F)cc56)C4)C3)cc2)CC1 (single isomer, unassigned) [Compound 189]
9.2 nM | – | 2.1 µM | – | CS(=O)(=O)N1CCN(CCNC(=O)c2ccc(NC3CC4(CCN(c5ncnc6sc(CC(F)(F)F)cc56)C4)C3)cc2)CC1 (single isomer, unassigned) [Compound 190]
2.2 nM | 1.02 µM | – | – | CNC(=O)c1ccc(NC2CC3(CCN(c4ncnc5sc(CC(F)(F)F)cc45)C3)C2)cc1F (single isomer, unassigned) [Compound 205]
3.7 nM | – | 1.69 µM | – | CNC(=O)c1ccc(NC2CC3(CCN(c4ncnc5sc(CC(F)(F)F)cc45)C3)C2)cn1 (single isomer, unassigned) [Compound 217]
64.9 nM | – | > 3.75 µM | – | CNC(=O)c1ccc(NC2CC3(CCN(c4ncnc5sc(CC(F)(F)F)cc45)C3)C2)cn1 (single isomer, unassigned) [Compound 218]
2.6 nM | 2.4 µM | – | – | O=S(=O)(c1ccc(NC2CC3(CCN(c4ncnc5sc(CC(F)(F)F)cc45)C3)C2)cc1)N1CCOCC1 (single isomer, unassigned) [Compound 219]
80.2 nM | – | > 3.75 µM | – | CNC(=O)c1ccc(NC2CC3(CCN(c4ncnc5sc(CC(F)(F)F)cc45)C3)C2)c(F)c1F (single isomer, unassigned) [Compound 227]
84.2 nM | – | > 3.75 µM | – | CNC(=O)c1cc(F)c(NC2CC3(CCN(c4ncnc5sc(CC(F)(F)F)cc45)C3)C2)c(F)c1 (single isomer, unassigned) [Compound 228]
0.9 nM | – | 1 µM | – | CNC(=O)c1cc(F)c(NC2CC3(CCN(c4ncnc5sc(CC(F)(F)F)cc45)C3)C2)c(F)c1 (single isomer, unassigned) [Compound 229]
489 nM | > 3.75 µM | – | – | CNC(=O)c1ccc(NC2CC3(CCN(c4ncnc5sc(CC(F)(F)F)cc45)C3)C2)cc1C1CCN(C)CC1 (single isomer, unassigned) [Compound 230]
667 nM | > 3.75 µM | – | – | CN1CCC(c2cc(NC3CC4(CCN(c5ncnc6sc(CC(F)(F)F)cc56)C4)C3)ccc2C(=O)N2CCOCC2)CC1 (single isomer, unassigned) [Compound 232]
116 nM | – | > 3.75 µM | – | CC(C#N)(C#N)c1ccc(NC2CC3(CCN(c4ncnc5sc(CC(F)(F)F)cc45)C3)C2)cc1 (single isomer, unassigned) [Compound 234]
4.1 nM | – | 1.53 µM | – | CC(C#N)(C#N)c1ccc(NC2CC3(CCN(c4ncnc5sc(CC(F)(F)F)cc45)C3)C2)cc1 (single isomer, unassigned) [Compound 235]
74.6 nM | – | > 3.75 µM | – | CN(C)CCNC(=O)c1ccc(NC2CC3(CCN(c4ncnc5sc(CC(F)(F)F)cc45)C3)C2)c(F)c1 (single isomer, unassigned) [Compound 242]

IC50 [1, 3] | IC50 ([2]; Homo sapiens, MOLM-14, 192 h) | IC50 [2] | IC50 [1, 4] | Compound
2.9 nM | – | 1.11 µM | – | CN(C)CCNC(=O)c1ccc(NC2CC3(CCN(c4ncnc5sc(CC(F)(F)F)cc45)C3)C2)c(F)c1 (single isomer, unassigned) [Compound 243]
7.7 nM | > 3.75 µM | – | – | CNC(=O)c1c(F)cc(NC2CC3(CCN(c4ncnc5sc(CC(F)(F)F)cc45)C3)C2)cc1F (single isomer, unassigned) [Compound 245]
235 nM | – | > 3.75 µM | – | CN(C)CCNC(=O)c1ccc(NC2CC3(CCN(c4ncnc5sc(CC(F)(F)F)cc45)C3)C2)nc1 (single isomer, unassigned) [Compound 253]
108 nM | > 3.75 µM | – | – | O=C(c1cnc(NC2CC3(CCN(c4ncnc5sc(CC(F)(F)F)cc45)C3)C2)nc1)N1CCOCC1 (single isomer, unassigned) [Compound 258]
17.3 nM | > 3.75 µM | – | – | FC(F)(F)Cc1cc2c(N3CC4(CC[C@H](Nc5ccc(-c6cn[nH]c6)cc5)C4)C3)ncnc2s1 (single isomer, unassigned) [Compound 304]
3.4 nM | 3.38 µM | – | – | CC(=O)Nc1ccc(NC2CC3(CCN(c4ncnc5sc(CC(F)(F)F)cc45)C3)C2)cc1 (single isomer, unassigned) [Compound 331]
139 nM | – | > 3.75 µM | – | O=C(c1ccc(NC2CC3(CCN(c4ncnc5sc(CC(F)(F)F)cc45)C3)C2)c(F)c1)N1CCOCC1 (single isomer, unassigned) [Compound 352]
17.3 nM | > 3.75 µM | – | – | O=C(c1ccc(NC2CC3(CCN(c4ncnc5sc(CC(F)(F)F)cc45)C3)C2)c(F)c1)N1CCOCC1 (single isomer, unassigned) [Compound 353]
1460 nM | > 3.75 µM | – | – | CNC(=O)Cn1cc(NC2CC3(CCN(c4ncnc5sc(CC(F)(F)F)cc45)C3)C2)cn1 (single isomer, unassigned) [Compound 355]
2680 nM | – | > 3.75 µM | – | CNC(=O)Cn1cc(NC2CC3(CCN(c4ncnc5sc(CC(F)(F)F)cc45)C3)C2)cn1 (single isomer, unassigned) [Compound 356]
3.1 nM | > 3.75 µM | – | – | N#CCn1c(=O)[nH]c2cc(NC3CC4(CCN(c5ncnc6sc(CC(F)(F)F)cc56)C4)C3)ccc21 (single isomer, unassigned) [Compound 357]
5.3 nM | – | 3.5 µM | – | N#CCn1c(=O)[nH]c2cc(NC3CC4(CCN(c5ncnc6sc(CC(F)(F)F)cc56)C4)C3)ccc21 (single isomer, unassigned) [Compound 358]
16.2 nM | > 3.75 µM | – | – | NC(=O)Cn1c(=O)[nH]c2cc(NC3CC4(CCN(c5ncnc6sc(CC(F)(F)F)cc56)C4)C3)ccc21 (single isomer, unassigned) [Compound 359]
448 nM | – | > 3.75 µM | – | NC(=O)Cn1c(=O)[nH]c2cc(NC3CC4(CCN(c5ncnc6sc(CC(F)(F)F)cc56)C4)C3)ccc21 (single isomer, unassigned) [Compound 360]
46 nM | 2.1 µM | – | 44.1 nM | CN(C(=O)c1ccc(NC2CC3(CCN(c4ncnc5sc(CC(F)(F)F)cc45)C3)C2)cc1)S(C)(=O)=O (single isomer, unassigned) [Compound 363]
1.3 nM | – | 1.1 µM | 0.8 nM | CN(C(=O)c1ccc(NC2CC3(CCN(c4ncnc5sc(CC(F)(F)F)cc45)C3)C2)cc1)S(C)(=O)=O (single isomer, unassigned) [Compound 364]
